Measurements: patent US7115650B1, “Compositions for improving fertility” (Ferring BV, priority 1999, dated 2006)

Experiments:
Assay type in all cases: in vivo, rat
[1] = tested on: obese Zucker Diabetic Fatty (ZDF) male rats; assay: Plasma testosterone by radioimmunoassay in animal model of human infertility; conditions: treated obese ZDF males, oral 10 mg/kg/day, end of study; obese 1145±328, lean 2410±239; NS vs lean
Procedure: (§1) Obese Zucker Diabetic Fatty males and females as well as fertile lean males and females were put into individual cages and fed with Purina 5008 (6.5% fat). At 6.5 weeks of life, obese rats were randomized into 3 groups: • 1. Control group—obese ZDF rats (n=8) treated with vehicle. • 2. Once-daily treatment group—obese ZDF rats (n=8) given the compound of Example 1B orally once daily (10 mg/kg/day). • 3. Twice-daily treatment group—obese ZDF rats (n=8) given the compound of Example 1B orally twice daily (10 mg/kg/day). Methods
(§2) Blood and pituitaries of lean and obese rats were collected at the end of the study. Pituitary LH and plasma testosterone concentrations were measured by radioimmunoassay. Estrous cyclicity was evaluated by observation of vaginal smear.

[2] = tested on: obese Zucker Diabetic Fatty (ZDF) rats; assay: Pituitary LH content by radioimmunoassay in animal model of human infertility; conditions: treated obese ZDF rats, oral 10 mg/kg/day, end of study; obese control 8.1±0.6, lean 6.3±0.6; p<0.05 vs control
Procedure: as §1, §2

[3] = tested on: obese Zucker Diabetic Fatty (ZDF) female rats; assay: Estrous cyclicity by observation of vaginal smear in animal model of human infertility; conditions: oral 10 mg/kg/day, untreated obese females had abnormal cyclicity vs lean
Procedure: as §1, §2

For `CC(C)(C)[C@H](N)C(=O)N1CCC[C@H]1C#N` [Example 1B, (2S)-N-((2′S)-2′-amino-3′,3′-dimethylbutanoyl)pyrrolidine-2-carbonitrile], the Plasma testosterone level [1] was 2390 ± 759 pg/mL, the “Pituitary LH content” value [2] was 5.2±0.4 μg/pituitary and the Estrous cyclicity [3] was “normalised estrous cyclicity”.
